The values that follow come from ChEMBL document CHEMBL1773016, “Discovery and optimization of a series of benzothiazole phosphoinositide 3-kinase (PI3K)/mammalian target of rapamycin (mTOR) dual inhibitors” (J Med Chem, 2011).

Series [1] deals with Phosphatidylinositol 4,5-bisphosphate 3-kinase catalytic subunit alpha isoform (Homo sapiens, UniProt P42336).
Description: Inhibition of human PI3Kalpha expressed in Sf9 cells
The target of series [2] is Serine/threonine-protein kinase mTOR (Homo sapiens, UniProt P42345).
The nature of series [3]: in vitro. The conditions noted are these: human, liver microsomes. (Microsomes from liver hold many membrane-bound enzymes, among them those of drug oxidation.)
Description: Clearance in human liver microsomes
Series [4] can be described thus: in vitro. The following applies: rat, liver microsomes.
Description: Clearance in rat liver microsomes

Bounds are passed on as bounds.

Phosphatidylinositol 4,5-bisphosphate 3-kinase catalytic subunit alpha isoform, sequence (P42336 whole entry, canonical isoform): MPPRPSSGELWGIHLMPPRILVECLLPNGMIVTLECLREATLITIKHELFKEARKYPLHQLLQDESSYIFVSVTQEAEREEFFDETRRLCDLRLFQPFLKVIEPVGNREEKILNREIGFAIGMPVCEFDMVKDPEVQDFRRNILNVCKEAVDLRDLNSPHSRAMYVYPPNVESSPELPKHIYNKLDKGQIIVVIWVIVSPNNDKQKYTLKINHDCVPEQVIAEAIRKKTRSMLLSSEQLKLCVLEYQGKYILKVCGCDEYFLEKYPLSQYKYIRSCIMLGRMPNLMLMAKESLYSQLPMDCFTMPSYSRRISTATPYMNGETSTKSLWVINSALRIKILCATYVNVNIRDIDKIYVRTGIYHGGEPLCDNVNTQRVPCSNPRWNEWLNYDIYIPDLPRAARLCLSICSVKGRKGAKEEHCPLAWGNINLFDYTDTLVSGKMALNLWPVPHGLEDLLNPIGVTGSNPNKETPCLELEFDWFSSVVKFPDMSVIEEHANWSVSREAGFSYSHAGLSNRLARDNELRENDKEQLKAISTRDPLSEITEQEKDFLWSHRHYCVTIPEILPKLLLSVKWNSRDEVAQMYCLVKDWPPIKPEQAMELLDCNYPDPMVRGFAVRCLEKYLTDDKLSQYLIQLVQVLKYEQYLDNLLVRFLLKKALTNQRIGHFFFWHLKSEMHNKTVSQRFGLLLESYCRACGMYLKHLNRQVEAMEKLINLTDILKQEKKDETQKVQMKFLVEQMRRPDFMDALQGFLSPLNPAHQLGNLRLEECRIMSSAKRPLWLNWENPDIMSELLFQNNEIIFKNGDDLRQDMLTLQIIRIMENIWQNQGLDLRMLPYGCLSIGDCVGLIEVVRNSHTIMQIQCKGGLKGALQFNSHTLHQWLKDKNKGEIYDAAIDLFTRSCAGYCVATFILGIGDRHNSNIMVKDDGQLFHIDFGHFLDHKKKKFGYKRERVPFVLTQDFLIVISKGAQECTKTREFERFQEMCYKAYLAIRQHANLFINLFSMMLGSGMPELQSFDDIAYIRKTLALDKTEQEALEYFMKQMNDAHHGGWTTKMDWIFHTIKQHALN

As to `CC(=O)Nc1nc2ccc(-c3ccnc(NS(=O)(=O)c4cccc(F)c4)n3)cc2s1`, the Ki (as a rule, a measure of affinity in units of concentration, obtained from inhibition or displacement) in series [1] worked out at 84 nM. For the same molecule, inhibition in series [2] was half-maximal at 47 nM (IC50).
For `COc1cccc(Sc2nccc(-c3ccc4nc(NC(C)=O)sc4c3)n2)c1`, in that order: 48 nM and > 6000 nM.
On to `CC(=O)Nc1nc2ccc(-c3ccnc(OCCCc4cccnc4)n3)cc2s1`, for which inhibition in series [2] was half-maximal at 913 nM (IC50).
Consider `CC(=O)Nc1nc2ccc(-c3cnc(Cl)c(NS(=O)(=O)c4cccc(C(F)(F)F)c4)c3)cc2s1`, for which, in series [1], the Ki is < 1 nM. Further, the IC50 (in general, the concentration needed to halve the response being measured) in series [2] is < 1 nM. Moreover, the values for the microsomal CLint in the series “in vitro [3]” and in “in vitro [4]” were 17 µL/min/mg and 36 µL/min/mg, respectively.
For the molecule `COc1cccc(COc2nccc(-c3ccc4nc(NC(C)=O)sc4c3)n2)c1`, the Ki in series [1] amounted to 18 nM. The IC50 in series [2] was > 6000 nM.
For `CC(=O)Nc1nc2ccc(-c3ccnc(Sc4ccccc4F)n3)cc2s1`, in that order: 46 nM and > 6000 nM.
Turning to `COc1ccc(COc2nccc(-c3ccc4nc(NC(C)=O)sc4c3)n2)cc1`, the Ki in series [1] turned out to be 58 nM. The IC50 in series [2] is > 6000 nM.
`COc1ccc(S(=O)(=O)N(C)c2nccc(-c3ccc4nc(NC(C)=O)sc4c3)n2)cc1` came in with a Ki in series [1] of 76 nM. This molecule showed an IC50 in series [2] of 285 nM. For the same molecule, the microsomal CLint in the series “in vitro [3]” and in the series “in vitro [4]” was > 399 µL/min/mg each time.
Regarding `CC(=O)Nc1nc2ccc(-c3ccnc(OCCCc4ccncc4)n3)cc2s1`, the affinity in series [1] corresponds to a Ki of 114 nM. Further, the IC50 in series [2] was > 6000 nM.
For `CC(=O)Nc1nc2ccc(-c3ccnc(OCc4ccc(C)cc4)n3)cc2s1`, in that order: 58 nM and > 6000 nM.
Turning to `CC(=O)Nc1nc2ccc(-c3ccnc(Oc4ccccc4)n3)cc2s1`, the IC50 in series [2] is > 6000 nM.
Take `CC(=O)Nc1nc2ccc(-c3ccnc(OCc4ccccc4)n3)cc2s1`: in series [1], the affinity corresponds to a Ki of 105 nM. Moreover, the IC50 in series [2] was > 6000 nM.
The like results for `COc1ccc(S(=O)(=O)Nc2cc(-c3ccc4nc(NC(C)=O)sc4c3)cnc2C#N)cc1` were, in that order, 1.4 nM and 1.6 nM.
For `CC(=O)Nc1nc2ccc(-c3ccnc(NCc4ccccc4)n3)cc2s1`, in that order: 85 nM and > 6000 nM.
In series [1], `CC(=O)Nc1nc2ccc(-c3ccnc(NS(=O)(=O)c4ccc(F)cc4)n3)cc2s1` showed a Ki of 826 nM. This molecule also displayed a 50% inhibitory concentration (IC50) in series [2] of 719 nM.
Regarding `CC(=O)Nc1nc2ccc(-c3cnc(Cl)c(NS(=O)(=O)c4ccc(C(C)(C)C)cc4)c3)cc2s1`, the Ki in series [1] is < 1 nM. For the same molecule, in series [2], the IC50 was found to be 2.1 nM. Further, the microsomal CLint (usually the rate of metabolic loss divided by the concentration) was 135 µL/min/mg in the series “in vitro [3]” and 460 µL/min/mg in “in vitro [4]”.
The like results for `CC(=O)Nc1nc2ccc(-c3cnc(Cl)c(NS(=O)(=O)c4ccccc4F)c3)cc2s1` were, in that order, < 1 nM, 1.1 nM, < 14 µL/min/mg and 320 µL/min/mg.
Regarding `COc1ccccc1Sc1nccc(-c2ccc3nc(NC(C)=O)sc3c2)n1`, the IC50 in series [2] is > 6000 nM.
For `CC(=O)Nc1nc2ccc(-c3cnc(Cl)c(NS(=O)(=O)c4ccccc4)c3)cc2s1`, the IC50 in series [2] is < 1 nM. Besides, the microsomal CLint in the series “in vitro [3]” was < 14 µL/min/mg; in “in vitro [4]”, > 399 µL/min/mg.
`CC(=O)Nc1nc2ccc(-c3ccnc(OCc4ccncc4)n3)cc2s1`: the Ki in series [1] was 128 nM. Moreover, in series [2], the IC50 is > 6000 nM.
For the molecule `CC(=O)Nc1nc2ccc(-c3ccnc(CCc4ccccc4)n3)cc2s1`, the IC50 in series [2] was > 6000 nM.
On the same count and under the same terms, the figure for `COc1ccc(S(=O)(=O)Nc2nccc(-c3ccc4nc(NC(C)=O)sc4c3)n2)cc1` is 57 nM.
The molecule `COc1ccc(C(=O)Nc2nccc(-c3ccc4nc(NC(C)=O)sc4c3)n2)cc1` returned a Ki in series [1] of 3130 nM. For the same molecule, the IC50 in series [2] is > 6000 nM.
`CC(=O)Nc1nc2ccc(-c3ccnc(OCCCN4CCOCC4)n3)cc2s1`: in series [2], the IC50 is > 6000 nM.
`CC(=O)Nc1nc2ccc(-c3cnc(Cl)c(NS(=O)(=O)c4cccc(F)c4)c3)cc2s1` came in with a Ki in series [1] of 1.1 nM. The same molecule gave an IC50 in series [2] of 2.3 nM. In addition, the results for the microsomal CLint in the series “in vitro [3]” and in “in vitro [4]” were < 14 µL/min/mg and > 399 µL/min/mg, respectively.
Molecule `CC(=O)Nc1nc2ccc(-c3ccnc(Cc4ccccc4)n3)cc2s1` gave a Ki in series [1] of 605 nM. For the same molecule, the IC50 in series [2] is > 6000 nM.
Turning to `COc1ccc(S(=O)(=O)Nc2cc(-c3ccc4nc(NC(C)=O)sc4c3)cnc2Cl)cc1`, the Ki in series [1] is < 1 nM. In addition, the IC50 in series [2] is 2.1 nM. Also, the microsomal CLint in the series “in vitro [3]” is 42 µL/min/mg; in “in vitro [4]”, > 399 µL/min/mg.
Take `CC(=O)Nc1nc2ccc(-c3cnc(Cl)c(NS(=O)(=O)c4ccc(C(F)(F)F)cc4)c3)cc2s1`: in series [1], the Ki was < 1 nM. Besides, in series [2], the IC50 came out at 1.6 nM. Also, the microsomal CLint in “in vitro [3]” and in the series “in vitro [4]” was < 14 µL/min/mg in each case.
In the case of `CC(=O)Nc1nc2ccc(-c3cnc(Cl)c(NS(=O)(=O)c4ccc(Cl)cc4)c3)cc2s1`, the Ki in series [1] is < 1 nM. Moreover, the IC50 in series [2] was < 1 nM. In addition, the microsomal CLint in the series “in vitro [3]” and in the series “in vitro [4]” was < 14 µL/min/mg in each case.
Molecule `CC(=O)Nc1nc2ccc(-c3ccnc(N(C)S(=O)(=O)c4ccc(C)cc4)n3)cc2s1` registered an IC50 in series [2] of 269 nM. For the same molecule, the microsomal CLint in “in vitro [3]” was 579 µL/min/mg; in “in vitro [4]”, > 399 µL/min/mg.
On to `CC(=O)Nc1nc2ccc(-c3ccnc(Sc4ccccc4)n3)cc2s1`, for which the IC50 in series [2] is > 6000 nM.
On to `COc1ccc(S(=O)(=O)Nc2cccc(-c3ccc4nc(NC(C)=O)sc4c3)c2)cc1`, for which, in series [1], the Ki amounted to 48 nM. The molecule further displayed an IC50 in series [2] of 1500 nM.
Turning to `CC(=O)Nc1nc2ccc(-c3ccnc(OCc4ccc(F)cc4)n3)cc2s1`, the IC50 in series [2] was > 6000 nM.
Still for that read-out and setting: with `COc1ccc(S(=O)(=O)Nc2cc(-c3ccc4nc(NC(C)=O)sc4c3)ccn2)cc1` the figure was 29 nM.
With `CC(=O)Nc1nc2ccc(-c3ccnc(Sc4ccc(C)cc4)n3)cc2s1`, the Ki in series [1] is 59 nM. Further, in series [2], the IC50 was > 6000 nM.
Consider `CC(=O)Nc1nc2ccc(-c3cnc(Cl)c(NS(=O)(=O)c4cccc(Cl)c4)c3)cc2s1`, for which the Ki in series [1] is < 1 nM. Also, the IC50 in series [2] is < 1 nM. In addition, the microsomal CLint was 16 µL/min/mg in “in vitro [3]” and > 399 µL/min/mg in “in vitro [4]”.
On to `CC(=O)Nc1nc2ccc(-c3cnc(Cl)c(NS(=O)(=O)c4ccccc4C(F)(F)F)c3)cc2s1`, for which the Ki in series [1] is < 1 nM. The IC50 in series [2] is < 1 nM. Moreover, the microsomal CLint in “in vitro [3]” was < 14 µL/min/mg; in “in vitro [4]” it was 500 µL/min/mg.
In series [1], `COc1ccc(S(=O)(=O)Nc2cncc(-c3ccc4nc(NC(C)=O)sc4c3)c2)cc1` returned an inhibition constant Ki of 1.6 nM. Moreover, half-maximal inhibition in series [2] (IC50) was put at 11 nM.
For `CC(=O)Nc1nc2ccc(-c3ccnc(OCc4cccc(C)c4)n3)cc2s1`, in that order: 47 nM and > 6000 nM.
As to `CC(=O)Nc1nc2ccc(-c3ccnc(N(C)S(=O)(=O)c4ccccc4F)n3)cc2s1`, the IC50 in series [2] was > 6000 nM.
As for `CC(=O)Nc1nc2ccc(-c3ccnc(SCc4ccccc4)n3)cc2s1`, the IC50 in series [2] was > 6000 nM.
With `CC(=O)Nc1nc2ccc(-c3ccnc(Sc4ccccc4C)n3)cc2s1`, in series [2], the IC50 was > 6000 nM.
Regarding `CCN(c1nccc(-c2ccc3nc(NC(C)=O)sc3c2)n1)S(=O)(=O)c1ccc(OC)cc1`, affinity in series [1] was put at a Ki of 62 nM. In addition, the IC50 in series [2] amounted to 262 nM.
For `CC(=O)Nc1nc2ccc(-c3ccnc(Sc4ccc(F)cc4)n3)cc2s1`, in that order: 44 nM and > 6000 nM.
The like results for `COc1ccc(S(=O)(=O)Nc2cncc(-c3ccc4nc(NC(C)=O)sc4c3)n2)cc1` were, in that order, 9 nM and 15 nM.
The like results for `COc1ccc(Sc2nccc(-c3ccc4nc(NC(C)=O)sc4c3)n2)cc1` were, in that order, 18 nM and 3010 nM.
With `CC(=O)Nc1nc2ccc(-c3cnc(Cl)c(NS(=O)(=O)c4ccccc4Cl)c3)cc2s1`, the Ki in series [1] was < 1 nM. The IC50 in series [2] is < 1 nM. Also, the microsomal CLint in the series “in vitro [3]” was < 14 µL/min/mg; in “in vitro [4]”, > 399 µL/min/mg.
Consider `COc1ccc(S(=O)(=O)Nc2cc(-c3ccc4nc(NC(C)=O)sc4c3)cnc2C)cc1`, for which, in series [1], affinity was put at a Ki of 1.2 nM. In series [2], this molecule came in with an IC50 of 6 nM.
For `CC(=O)Nc1nc2ccc(-c3ccnc(NS(=O)(=O)c4ccc(C)cc4)n3)cc2s1`, in that order: 82 nM and 65 nM.
As for `CC(=O)Nc1nc2ccc(-c3ccnc(OCc4cccc(F)c4)n3)cc2s1`, in series [2], the IC50 is > 6000 nM.
Same read-out and setting: the figure for `CC(=O)Nc1nc2ccc(-c3ccnc(NC(C)(C)c4ccccc4)n3)cc2s1` is > 6000 nM.
In the case of `CC(=O)Nc1nc2ccc(-c3ccnc(Sc4cccc(F)c4)n3)cc2s1`, the Ki in series [1] came out at 31 nM. Further, the IC50 in series [2] is > 6000 nM.
`CC(=O)Nc1nc2ccc(-c3ccnc(NS(=O)(=O)c4ccccc4F)n3)cc2s1` had a Ki in series [1] of 41 nM. This molecule also returned an IC50 in series [2] of 45 nM.
On to `CC(=O)Nc1nc2ccc(-c3cnc(Cl)c(NS(=O)(=O)c4cccc(C(C)(C)C)c4)c3)cc2s1`, for which the Ki in series [1] was < 1 nM. The IC50 in series [2] came to 2.1 nM. Also, the microsomal CLint was 83 µL/min/mg in “in vitro [3]” and 610 µL/min/mg in the series “in vitro [4]”.
For the molecule `CC(=O)Nc1nc2ccc(-c3ccnc(Sc4cccc(C)c4)n3)cc2s1`, the Ki in series [1] came to 53 nM. In series [2], the IC50 is > 6000 nM.
For `CC(=O)Nc1nc2ccc(-c3ccnc(OCCCc4ccccc4)n3)cc2s1`, in that order: 32 nM and > 6000 nM.
